The values that follow come from patent US20150132813A1, “BIOSYNTHETIC PATHWAYS, RECOMBINANT CELLS, AND METHODS” (REGENTS OF THE UNIVERSITY OF MINNESOTA, priority 2012, published 2015).

This assay deals with α-ketoglutaric semialdehyde dehydrogenase KDHba. Nature of the assay: Enzymatic assay of KDHba (NADH absorbance at 340 nm). The format is biochemical, Burkholderia ambifaria.
Setting [1] is: substrate of KDHba, pH 8.0, 0.5 mM NAD+.

The Km is the concentration of substrate that gives half-maximal velocity. The kcat is the maximal rate divided by the concentration of active sites.

As for `CCCCC=O` [Valeraldehyde, valeraldehyde], under setting [1], the Km worked out at 31 µM and the kcat was 8.69 ± 0.26 s⁻¹. Besides, the “specificity constant (kcat/KM) of KDHba, fold higher than toward isobutyraldehyde” value (versus isobutyraldehyde) turned out to be 1260 fold. Moreover, the “specificity constant (kcat/KM) of KDHba, fold higher than toward isovaleraldehyde” value (versus isovaleraldehyde) is listed as 308 fold.
